Experimental data taken from ChEMBL document CHEMBL1201862, “PubChem BioAssay data set” (2004).
Activity calls are given as the source filed them.

Experiments:
cells [1] = experiment: cells
[2] = biological target: T1, Oxysterols receptor LXR-beta (Homo sapiens, UniProt P55055); format: functional, cell-based;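 also: Cell-based luminescence dose-response assay of agonist activity at LXR, run as a confirmatory counterscreen to a daf-12 agonist screen; HEK293 cells with Gal4-LXR fusion and GAL4-driven luciferase reporter; agonist potency from rising luciferase signal of a Gal4-LXR reporter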
T1 sequence (P55055 whole entry): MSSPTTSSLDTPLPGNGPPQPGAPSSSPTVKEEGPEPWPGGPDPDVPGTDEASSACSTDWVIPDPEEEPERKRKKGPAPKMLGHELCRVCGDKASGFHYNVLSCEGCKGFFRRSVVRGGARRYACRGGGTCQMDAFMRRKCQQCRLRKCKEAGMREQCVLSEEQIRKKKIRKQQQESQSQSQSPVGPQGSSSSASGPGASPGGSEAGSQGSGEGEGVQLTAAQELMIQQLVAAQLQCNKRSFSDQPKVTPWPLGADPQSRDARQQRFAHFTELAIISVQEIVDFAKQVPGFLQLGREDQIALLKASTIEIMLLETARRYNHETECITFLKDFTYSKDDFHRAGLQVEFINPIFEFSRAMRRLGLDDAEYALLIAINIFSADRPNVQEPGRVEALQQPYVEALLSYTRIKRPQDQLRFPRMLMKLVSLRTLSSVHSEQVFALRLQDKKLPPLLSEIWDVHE

Prothrombin = Prothrombin (Homo sapiens, UniProt P00734); experiment: Thrombin 1536 HTS Dose Response Confirmation. [Related pubchem assays: 1046 (Thrombin 1536 HTS; hits were confirmed in this assay)]; format: functional
[3] = biological target: Disintegrin and metalloproteinase domain-containing protein 17 (Homo sapiens, UniProt P78536); experiment: exosite inhibitors of ADAM17, dose response, biochemical (AID 743260)
Disintegrin and metalloproteinase domain-containing protein 17, sequence (P78536 whole entry, the tested form may be a part): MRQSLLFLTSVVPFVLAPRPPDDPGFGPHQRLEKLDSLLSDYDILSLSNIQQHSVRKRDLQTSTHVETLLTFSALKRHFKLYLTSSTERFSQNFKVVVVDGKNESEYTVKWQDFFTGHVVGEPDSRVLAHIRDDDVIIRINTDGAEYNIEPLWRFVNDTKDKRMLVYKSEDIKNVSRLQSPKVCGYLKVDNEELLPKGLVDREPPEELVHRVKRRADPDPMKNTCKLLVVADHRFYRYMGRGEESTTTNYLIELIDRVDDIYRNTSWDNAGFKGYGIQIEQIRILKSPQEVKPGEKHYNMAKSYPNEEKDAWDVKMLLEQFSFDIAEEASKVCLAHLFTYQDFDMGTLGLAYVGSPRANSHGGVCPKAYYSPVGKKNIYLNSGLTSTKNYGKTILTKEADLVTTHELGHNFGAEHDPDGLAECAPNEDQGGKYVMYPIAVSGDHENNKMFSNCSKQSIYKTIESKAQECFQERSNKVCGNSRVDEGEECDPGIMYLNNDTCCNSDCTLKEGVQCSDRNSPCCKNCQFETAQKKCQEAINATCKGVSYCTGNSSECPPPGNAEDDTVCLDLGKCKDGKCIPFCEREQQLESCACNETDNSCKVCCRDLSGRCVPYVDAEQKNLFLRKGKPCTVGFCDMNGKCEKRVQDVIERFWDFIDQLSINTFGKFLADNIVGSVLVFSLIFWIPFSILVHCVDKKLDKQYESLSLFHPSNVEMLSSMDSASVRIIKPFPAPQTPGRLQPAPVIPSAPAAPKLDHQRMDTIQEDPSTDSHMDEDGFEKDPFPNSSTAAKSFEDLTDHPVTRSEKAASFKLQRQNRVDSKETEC

[4] = inhibition of ADAM10 peptide cleavage – biochemical, FRET peptide substrate, recombinant human ADAM10, selectivity assay for ADAM17 exosite inhibitor project, dose response (AID 743259);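 also: ADAM10 enzyme cleaving a FRET peptide substrate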
cells [5] = format: functional, cell-based
cells [6] = format: functional, cell-based; remark: listed apart in the source
[7] = biological target: T2, Trace amine-associated receptor 1 (Homo sapiens, UniProt Q96RJ0); experiment: Fluorescence-based cell-based high throughput dose response assay to identify agonists of the human trace amine associated receptor 1 (TAAR1).; format: functional
T2 sequence (Q96RJ0 whole entry): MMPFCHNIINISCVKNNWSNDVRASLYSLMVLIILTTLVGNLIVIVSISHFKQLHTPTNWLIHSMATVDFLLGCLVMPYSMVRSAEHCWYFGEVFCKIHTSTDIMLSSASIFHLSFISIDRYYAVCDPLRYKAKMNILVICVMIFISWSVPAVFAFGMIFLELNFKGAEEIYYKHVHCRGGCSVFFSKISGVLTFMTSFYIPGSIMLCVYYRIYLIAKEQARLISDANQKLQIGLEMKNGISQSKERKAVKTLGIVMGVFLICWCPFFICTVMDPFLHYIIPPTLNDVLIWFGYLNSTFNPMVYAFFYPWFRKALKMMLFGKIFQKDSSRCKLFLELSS

[8] = biological target: T2, Trace amine-associated receptor 1; experiment: Counterscreen for agonists of the human trace amine associated receptor 1 (hTAAR1): Fluorescence-based cell-based high throughput dose response assay to identify hTAAR1 agonist that also desensitize TAAR1 receptor response.; format: functional
[9] = Dd2 parasite growth inhibition in erythrocytes – SYBR Green, dry powder samples, set 9, dose response (AID 1159568); format: functional, cell-based
P388 = experiment: cells; format: functional; conditions: Mus musculus
SN12K1 = experiment: cells; format: functional; conditions: Homo sapiens
Nonstructural protein 1 = Nonstructural protein 1 (Influenza A virus, UniProt Q194T2); format: functional, Influenza A virus (A/California/07/2009(H1N1))
[10] = biological target: T3, DNA repair protein RAD52 homolog (Homo sapiens, UniProt P43351); format: functional, biochemical
T3 sequence (P43351 whole entry): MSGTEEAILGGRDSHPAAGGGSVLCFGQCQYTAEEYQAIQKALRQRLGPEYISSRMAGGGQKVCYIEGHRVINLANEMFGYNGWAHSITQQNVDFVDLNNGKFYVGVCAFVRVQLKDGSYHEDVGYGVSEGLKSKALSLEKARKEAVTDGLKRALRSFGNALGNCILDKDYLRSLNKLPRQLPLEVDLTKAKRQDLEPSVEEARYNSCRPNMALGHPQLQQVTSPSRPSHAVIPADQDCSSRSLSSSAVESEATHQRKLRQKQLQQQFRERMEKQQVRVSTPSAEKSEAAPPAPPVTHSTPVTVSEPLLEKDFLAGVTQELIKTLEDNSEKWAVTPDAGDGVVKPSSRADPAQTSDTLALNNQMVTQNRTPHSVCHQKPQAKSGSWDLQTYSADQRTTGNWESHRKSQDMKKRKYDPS

P388/ADR = experiment: cells; format: functional; conditions: Mus musculus
[11] = biological target: T4, Rac GTPase-activating protein 1 (Homo sapiens, UniProt Q9H0H5); experiment: blockers of MgcRacGAP-driven Rac1 GTP hydrolysis – biochemical, ADP Hunter fluorescence, primary and confirmatory, confirmation (AID 624330); format: functional
T4 sequence (Q9H0H5 whole entry): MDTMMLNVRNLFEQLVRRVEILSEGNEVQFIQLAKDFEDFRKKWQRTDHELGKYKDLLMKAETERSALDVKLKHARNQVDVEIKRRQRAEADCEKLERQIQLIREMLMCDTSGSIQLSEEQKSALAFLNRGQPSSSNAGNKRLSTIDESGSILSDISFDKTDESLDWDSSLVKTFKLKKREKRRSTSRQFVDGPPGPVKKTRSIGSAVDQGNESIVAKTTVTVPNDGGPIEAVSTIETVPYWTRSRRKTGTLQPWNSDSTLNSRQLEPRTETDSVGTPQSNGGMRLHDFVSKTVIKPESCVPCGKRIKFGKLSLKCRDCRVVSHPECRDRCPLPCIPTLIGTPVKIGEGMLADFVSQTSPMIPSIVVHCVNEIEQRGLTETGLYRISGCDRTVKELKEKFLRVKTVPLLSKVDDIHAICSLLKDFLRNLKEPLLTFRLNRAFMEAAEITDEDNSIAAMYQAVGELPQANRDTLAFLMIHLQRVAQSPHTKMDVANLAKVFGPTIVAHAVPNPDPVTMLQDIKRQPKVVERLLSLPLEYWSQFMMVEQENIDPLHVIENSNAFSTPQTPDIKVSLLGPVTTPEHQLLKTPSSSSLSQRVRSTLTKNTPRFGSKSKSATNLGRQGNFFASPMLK

[12] = biological target: T5, Heat shock factor protein 1 (Mus musculus, UniProt P38532); experiment: decrease of HSF1-responsive luciferase luminescence – cell-based, NIH3T3, dose retest, confirmation (AID 2382); format: functional;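 also: NIH3T3 fibroblasts with HSF1-driven luciferase reporter stressed by proteasome inhibitor MG132; luminescence from HSF1-driven luciferase expression after 8 hours of MG132 stress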
T5 sequence (P38532 whole entry): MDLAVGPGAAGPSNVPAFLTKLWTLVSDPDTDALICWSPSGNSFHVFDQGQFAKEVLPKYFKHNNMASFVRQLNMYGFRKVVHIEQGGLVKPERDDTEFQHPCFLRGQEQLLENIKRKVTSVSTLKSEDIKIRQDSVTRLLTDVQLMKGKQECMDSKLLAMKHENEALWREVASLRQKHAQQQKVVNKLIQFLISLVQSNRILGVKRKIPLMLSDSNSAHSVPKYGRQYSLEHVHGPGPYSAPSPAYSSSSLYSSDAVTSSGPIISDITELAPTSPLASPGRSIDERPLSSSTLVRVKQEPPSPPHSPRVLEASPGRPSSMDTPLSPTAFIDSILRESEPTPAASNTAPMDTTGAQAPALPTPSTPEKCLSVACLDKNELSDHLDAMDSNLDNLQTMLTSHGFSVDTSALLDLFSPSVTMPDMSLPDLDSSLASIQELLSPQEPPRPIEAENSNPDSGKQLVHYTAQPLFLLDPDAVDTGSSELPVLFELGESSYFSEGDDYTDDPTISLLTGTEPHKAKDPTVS

Vero = experiment: mammalian cell viability reduction – secondary assay, cytotoxicity control for West Nile virus antiviral project, dose response (AID 1650); format: functional; conditions: Chlorocebus sabaeus
Fatty acid synthase [13] = biological target: T6, Fatty acid synthase (Homo sapiens, UniProt P49327); experiment: inhibition of human FAS-TE enzyme activity – biochemical, kinetic fluorescence intensity, dose response (AID 624326); format: functional;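 also: rate of fluorescence rise from hydrolysis of a fluorogenic O-methyl fluorescein ester substrate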
T6 sequence (P49327 whole entry): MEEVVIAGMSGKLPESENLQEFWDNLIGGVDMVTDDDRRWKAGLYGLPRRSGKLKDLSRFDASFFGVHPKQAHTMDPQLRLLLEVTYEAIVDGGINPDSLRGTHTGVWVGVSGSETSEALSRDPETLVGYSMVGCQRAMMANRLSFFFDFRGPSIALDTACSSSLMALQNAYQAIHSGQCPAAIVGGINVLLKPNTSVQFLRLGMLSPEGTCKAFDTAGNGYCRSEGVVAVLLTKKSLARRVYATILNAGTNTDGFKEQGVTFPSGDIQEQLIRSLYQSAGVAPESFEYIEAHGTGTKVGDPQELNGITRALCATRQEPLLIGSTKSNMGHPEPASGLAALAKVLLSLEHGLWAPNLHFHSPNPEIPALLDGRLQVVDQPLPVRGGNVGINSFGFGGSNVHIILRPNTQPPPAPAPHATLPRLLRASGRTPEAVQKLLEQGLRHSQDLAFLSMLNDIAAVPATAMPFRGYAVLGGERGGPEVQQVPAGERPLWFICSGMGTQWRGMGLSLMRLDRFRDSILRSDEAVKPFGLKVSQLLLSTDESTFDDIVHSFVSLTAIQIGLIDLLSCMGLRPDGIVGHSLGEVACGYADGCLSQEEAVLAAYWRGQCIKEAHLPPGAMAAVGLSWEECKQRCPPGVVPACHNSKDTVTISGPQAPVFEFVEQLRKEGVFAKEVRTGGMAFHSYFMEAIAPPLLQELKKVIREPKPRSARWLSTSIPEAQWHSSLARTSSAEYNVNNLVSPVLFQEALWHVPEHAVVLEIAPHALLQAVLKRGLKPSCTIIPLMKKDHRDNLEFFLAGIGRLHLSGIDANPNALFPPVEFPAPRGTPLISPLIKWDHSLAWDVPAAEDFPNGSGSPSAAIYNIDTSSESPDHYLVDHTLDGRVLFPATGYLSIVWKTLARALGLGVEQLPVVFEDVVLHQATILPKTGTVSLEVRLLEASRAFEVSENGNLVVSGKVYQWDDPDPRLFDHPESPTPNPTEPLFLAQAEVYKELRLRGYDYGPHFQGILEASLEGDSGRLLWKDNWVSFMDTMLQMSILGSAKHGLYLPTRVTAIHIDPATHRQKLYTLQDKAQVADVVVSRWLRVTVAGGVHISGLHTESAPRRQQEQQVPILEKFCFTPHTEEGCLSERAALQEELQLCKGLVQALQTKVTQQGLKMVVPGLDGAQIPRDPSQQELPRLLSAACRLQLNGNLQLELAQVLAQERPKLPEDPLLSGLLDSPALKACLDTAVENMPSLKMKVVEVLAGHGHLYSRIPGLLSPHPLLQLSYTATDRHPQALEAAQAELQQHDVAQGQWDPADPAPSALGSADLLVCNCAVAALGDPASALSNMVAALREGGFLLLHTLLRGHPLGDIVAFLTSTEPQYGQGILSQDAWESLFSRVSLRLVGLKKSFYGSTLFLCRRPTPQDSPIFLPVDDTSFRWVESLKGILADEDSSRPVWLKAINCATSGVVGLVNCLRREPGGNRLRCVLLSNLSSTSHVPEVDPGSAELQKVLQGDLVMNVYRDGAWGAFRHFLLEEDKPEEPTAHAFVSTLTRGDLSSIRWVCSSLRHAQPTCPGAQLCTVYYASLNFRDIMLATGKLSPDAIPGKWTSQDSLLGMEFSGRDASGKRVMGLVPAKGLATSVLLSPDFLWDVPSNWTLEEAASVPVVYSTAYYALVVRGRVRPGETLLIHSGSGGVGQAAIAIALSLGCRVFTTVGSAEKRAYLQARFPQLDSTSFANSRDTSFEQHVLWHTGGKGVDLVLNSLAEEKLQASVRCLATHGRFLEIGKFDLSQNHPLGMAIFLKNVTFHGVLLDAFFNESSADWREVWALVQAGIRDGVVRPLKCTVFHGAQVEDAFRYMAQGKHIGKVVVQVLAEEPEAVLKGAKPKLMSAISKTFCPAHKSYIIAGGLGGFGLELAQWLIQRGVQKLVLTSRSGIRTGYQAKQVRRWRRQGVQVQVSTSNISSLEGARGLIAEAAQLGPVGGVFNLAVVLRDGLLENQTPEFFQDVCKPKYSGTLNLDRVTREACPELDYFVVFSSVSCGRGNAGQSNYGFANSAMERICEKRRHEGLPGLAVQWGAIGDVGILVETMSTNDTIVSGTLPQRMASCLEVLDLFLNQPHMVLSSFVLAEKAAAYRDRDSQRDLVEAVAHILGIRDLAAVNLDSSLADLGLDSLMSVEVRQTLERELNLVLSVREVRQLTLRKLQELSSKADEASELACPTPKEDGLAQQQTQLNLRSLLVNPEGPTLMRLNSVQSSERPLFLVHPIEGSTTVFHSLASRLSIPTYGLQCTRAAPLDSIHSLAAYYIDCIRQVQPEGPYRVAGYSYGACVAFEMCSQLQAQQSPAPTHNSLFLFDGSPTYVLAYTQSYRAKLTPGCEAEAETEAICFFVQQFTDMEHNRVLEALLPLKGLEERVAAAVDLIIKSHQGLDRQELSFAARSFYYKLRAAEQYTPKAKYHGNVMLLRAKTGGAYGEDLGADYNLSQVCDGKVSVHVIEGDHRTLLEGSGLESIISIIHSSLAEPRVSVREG

Genome polyprotein = Genome polyprotein (dengue virus type 2, UniProt P29990); experiment: flavivirus cap methylation enzyme inhibition – biochemical, confirmation dose response, primary screen (AID 588689); format: functional
Genome polyprotein, sequence (P29990 2492-3391 limits assumed): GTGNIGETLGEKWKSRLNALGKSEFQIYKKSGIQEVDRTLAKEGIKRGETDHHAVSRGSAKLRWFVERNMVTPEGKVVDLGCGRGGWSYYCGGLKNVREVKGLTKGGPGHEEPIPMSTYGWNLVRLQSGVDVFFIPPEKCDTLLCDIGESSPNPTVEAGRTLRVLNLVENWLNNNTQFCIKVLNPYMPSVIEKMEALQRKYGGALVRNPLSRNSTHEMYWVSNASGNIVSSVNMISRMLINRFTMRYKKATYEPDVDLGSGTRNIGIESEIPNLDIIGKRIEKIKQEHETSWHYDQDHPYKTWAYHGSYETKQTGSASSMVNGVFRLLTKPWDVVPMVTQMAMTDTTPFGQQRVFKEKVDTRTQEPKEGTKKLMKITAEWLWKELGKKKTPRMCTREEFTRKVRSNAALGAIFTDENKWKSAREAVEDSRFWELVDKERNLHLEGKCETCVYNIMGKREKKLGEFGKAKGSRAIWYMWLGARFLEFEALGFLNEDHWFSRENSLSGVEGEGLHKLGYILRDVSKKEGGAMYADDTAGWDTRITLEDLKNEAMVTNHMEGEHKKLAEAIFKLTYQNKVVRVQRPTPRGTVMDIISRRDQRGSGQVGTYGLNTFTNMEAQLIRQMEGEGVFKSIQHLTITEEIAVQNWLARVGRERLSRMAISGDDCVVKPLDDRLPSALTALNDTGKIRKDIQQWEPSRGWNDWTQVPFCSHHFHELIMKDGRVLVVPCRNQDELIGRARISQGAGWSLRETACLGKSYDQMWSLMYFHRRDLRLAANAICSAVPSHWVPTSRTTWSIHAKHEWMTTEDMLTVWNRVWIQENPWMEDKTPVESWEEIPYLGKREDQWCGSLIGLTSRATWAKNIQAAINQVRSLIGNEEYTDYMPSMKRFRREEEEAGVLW

Fatty acid synthase [14] = biological target: T6, Fatty acid synthase; experiment: inhibition of human FAS-TE enzyme activity – biochemical, endpoint fluorescence intensity, uHTS hits, dose response (AID 624327); format: functional;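 also: fluorescence from hydrolysis of an O-methyl fluorescein acyl ester substrate by the enzyme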
[15] = OVCAR-3 cell viability loss – plate reader, dry powder samples, PAX8 inhibitor project, dose response (AID 743044); format: functional, cell-based
Paired box protein Pax-8 = Paired box protein Pax-8 (Homo sapiens, UniProt Q06710); experiment: PAX8 transcriptional activity inhibition in RMG-I – RMG-I cells, luciferase, cherry-pick, dose response (AID 687027); format: functional, cell-based;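 also: luciferase reporter driven by Pax8 target thyroperoxidase promoter measured by SteadyGlo luminescence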
Paired box protein Pax-8, sequence (Q06710 whole entry): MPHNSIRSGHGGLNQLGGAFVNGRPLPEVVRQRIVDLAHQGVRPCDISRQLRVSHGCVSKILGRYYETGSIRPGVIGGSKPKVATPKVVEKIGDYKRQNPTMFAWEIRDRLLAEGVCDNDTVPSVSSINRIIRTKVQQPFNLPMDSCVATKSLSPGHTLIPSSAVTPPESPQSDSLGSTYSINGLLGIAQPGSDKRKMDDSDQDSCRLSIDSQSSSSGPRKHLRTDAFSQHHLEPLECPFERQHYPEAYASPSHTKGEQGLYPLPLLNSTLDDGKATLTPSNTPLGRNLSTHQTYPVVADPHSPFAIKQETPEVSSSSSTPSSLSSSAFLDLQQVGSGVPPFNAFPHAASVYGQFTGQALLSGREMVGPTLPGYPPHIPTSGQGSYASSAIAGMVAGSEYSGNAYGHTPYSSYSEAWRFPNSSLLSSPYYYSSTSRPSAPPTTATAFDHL

Kallikrein-7 = Kallikrein-7 (Homo sapiens, UniProt P49862); experiment: Fluorescence Intensity-based biochemical primary high throughput dose response assay to identify activators of kallikrein-7 (K7) zymogen.
Kallikrein-7, sequence (P49862 whole entry): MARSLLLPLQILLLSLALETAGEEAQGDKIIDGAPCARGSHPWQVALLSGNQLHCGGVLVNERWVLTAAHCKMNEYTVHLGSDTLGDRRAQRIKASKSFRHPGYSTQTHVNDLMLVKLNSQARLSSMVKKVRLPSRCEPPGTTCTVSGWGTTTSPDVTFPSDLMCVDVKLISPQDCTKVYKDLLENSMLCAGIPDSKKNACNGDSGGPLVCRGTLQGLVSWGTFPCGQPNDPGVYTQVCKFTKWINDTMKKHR

[16] = Dd2 malaria parasite growth inhibition potency – SYBR Green, dry powder samples, dose response (AID 1159566); format: functional, cell-based;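 also: potency for growth inhibition with lower SYBR green DNA signal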
[17] = growth inhibition of yeast DHODH-expressing 3D7 parasites – SYBR Green, dry powder samples, dose response (AID 1159570); format: functional, cell-based;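 also: parasite growth measured after 72 hours of compound exposure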
[18] = growth inhibition of PfATP4-mutant resistant parasites – NITD609-resistant line, SYBR Green, dry powder, dose response (AID 1159571); format: functional, cell-based;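 also: parasites synchronized at ring stage by sorbitol before testing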
[19] = P. falciparum Dd2 growth inhibitors, dose response, SYBR Green, cherry-picked samples (AID 1159567); format: functional, cell-based

O=C(/C=C/Nc1ccc(F)cc1)c1cccs1
EC50 (cells [1]): > 67.6 µM (inactive)
EC50 [2]: > 67.6 µM (inactive)

C=CCOc1ccc(C(=O)C2=C(O)C(=O)N(CCCOC)C2c2ccncc2)cc1 (centres undefined)
IC50 (Prothrombin): > 50 µM (inconclusive)

CCCCC[C@@H](C)N1C[C@@H](COCc2ccccc2)Oc2cc(N3CCC[C@H]3CO)ccc2S1(=O)=O
IC50 [3]: > 69.5 µM (inactive)
IC50 [4]: 9.07 µM (active)

CCOC(=O)C(NCCc1ccccc1)(NC(=O)CC)C(F)(F)F (centres undefined)
EC50 (cells [5]): > 29.9 µM (inactive)
IC50 (cells [6]): > 29.9 µM (inactive)
EC50 [7]: 1.81 µM (active)
IC50 [8]: 8.43 µM (active)

O=C(C[C@@H]1CC[C@@H]2[C@H](COC[C@@H](O)CN2C(=O)c2ccncc2)O1)Nc1ccc(-c2ccccc2)cc1
AC50 [9]: 15.3 µM (active)

COc1cc2c(ccc3c4cc(OC)c(OC)cc4c[n+](C)c23)cc1O [FAGARONINE]
GI50 (P388): 0.489 µM (active)
GI50 (SN12K1): 1.95 µM (inactive)
IC50 (Nonstructural protein 1): > 100 µM (active)
AC50 [10]: < 0.244 µM (active)
GI50 (P388/ADR): 66.5 µM (inactive)
IC50 [11]: 42.5 µM (active)

COc1cccc(C(=O)N[C@H](C(=O)N2CCC[C@H]2C(=O)NCCc2ccccc2Cl)C2CCCCC2)c1
EC50 (cells [5]): > 29.9 µM (inactive)
IC50 (cells [6]): > 29.9 µM (inactive)
EC50 [7]: 6.72 µM (active)
IC50 [8]: 6.66 µM (active)

Cc1cc(N(C)C)nc(Nc2ccccc2)n1
EC50 (cells [5]): > 29.9 µM (inactive)
IC50 (cells [6]): > 29.9 µM (inactive)
EC50 [7]: 0.128 µM (active)
IC50 [8]: 0.273 µM (active)

NS(=O)(=O)c1ccc(CCNC(=O)CNCCc2ccccc2)cc1
EC50 (cells [5]): > 29.9 µM (inactive)
IC50 (cells [6]): > 29.9 µM (inactive)
EC50 [7]: 1.07 µM (active)
IC50 [8]: 3.56 µM (active)

C/C=C/c1ccc([C@H]2[C@@H](CO)N(C(=O)Nc3ccccc3F)[C@H]2C#N)cc1
AC50 [9]: 13.7 µM (active)

CCCCCCc1cc2cc(S(=O)(=O)c3ccc(F)c(Cl)c3)c(=O)oc2cc1O
EC50 [12]: 17.5 µM (active)
CC50 (Vero): 10.9 µM (active)

CCn1ncc(Br)c1C(=O)Nc1cc([N+](=O)[O-])ccc1C
IC50 (Prothrombin): > 50 µM (not active)

O=C1NC(Nc2nc3ccccc3s2)(C(F)(F)F)C(=O)N1C1CCCCC1 (centres undefined)
CC50 (Vero): 3.44 µM (active)

Cc1ccc(C)c(NC(=O)c2ccc3ccccc3n2)c1
EC50 (cells [1]): > 67.5 µM (inactive)
EC50 [2]: > 67.5 µM (inactive)

CCc1ccc(S(=O)(=O)ON2C(=O)c3ccccc3C2=O)cc1
IC50 (Fatty acid synthase [13]): 1.28 µM (active)
IC50 (Genome polyprotein): > 100 µM (active)
IC50 (Fatty acid synthase [14]): 2.41 µM (active)
IC50 (Prothrombin): 1.55 µM (active)

CCCNC(=O)N1[C@H](C#N)[C@@H](c2ccccc2C2=CCCCC2)[C@@H]1CO
AC50 [9]: 4.33 µM (active)

O=C(O)c1ccccc1SCC(=O)N1CCOCC1
IC50 (Prothrombin): > 50 µM (not active)

O=C(Nc1ccc(F)cc1)N[C@H]1CC[C@H](CCNC(=O)c2cc(Cl)cc(Cl)c2)O[C@H]1CO
AC50 [15]: 33 µM (active)
AC50 (Paired box protein Pax-8): 8.97 µM (active)

CCOC(=O)c1c(C)nc(-c2ccccc2)nc1N
EC50 (cells [1]): > 67.5 µM (inactive)
EC50 [2]: > 67.5 µM (inactive)

CCN1CCN(c2ccc(/N=C/c3ccccc3O)cc2)CC1
AC50 [10]: 2.23 µM (active)
IC50 [11]: 20.8 µM (active)

NS(=O)(=O)c1ccc(N/N=C/C=C/c2ccccc2[N+](=O)[O-])cc1
IC50 [3]: > 69.5 µM (inactive)
IC50 [4]: 13.7 µM (inactive)

O=C(O)CCC(=O)NN1C(=O)c2ccccc2NC1c1ccc(F)cc1 (centres undefined)
EC50 (Kallikrein-7): > 0.286 µM (active)

COc1cccc(S(=O)(=O)N(C)C[C@@H]2Oc3ncc(C#Cc4ccc(OC)c(OC)c4)cc3C(=O)N([C@H](C)CO)C[C@@H]2C)c1
AC50 [16]: 0.276 µM (active)
AC50 [17]: 0.724 µM (active)
AC50 [18]: 0.428 µM (active)
AC50 [19]: 1.23 µM (active)
